# Laboratory results from patent publication US10000469B2, “Heat shock protein 70 (hsp-70) receptor ligands” (Duke University, priority 2014, dated 2018).
# Tests used:
# [1] = system: MMTV-neu mice; assay: HS-72 in vivo efficacy study; parameters: species or system mouse; details: for tumor volume vs. no treatment: at 21 days, p<0.05
# Protocol: HS-72 in vivo Efficacy Studies: MMTV-neu mice, a HER2 overexpression breast cancer mouse model in which HER2 is under the transcriptional control of the mouse mammary tumor virus promoter/enhancer, were treated with the indicated doses and dosing schedule [Taneja et al., 2009]. All doses were delivered through IP injections using DMSO and their tumors were calipered once weekly. The mice were culled upon reaching tumor burden or if they expressed signs of toxicity as per MP1U standard protocol.
# [2] = system: Hsp70i, Hsc70, Grp78, Grp75, Hsp90; assay: Elution of HEK 293T cell lysate proteins from the ATP resin (silver stain, Western blot); type: binding; details: Western blot
# Protocol: (§1) FLECS Screen: A pEGFP-tagged Hsp70i was (plasmid 15215, Addgene, Cambridge, Mass.) used in the FLECS assay and was originally cloned according to [Zeng et al. (2004). Hsp70 dynamics in vivo: effect of heat shock and protein aggregation. Journal of cell science 117, 4991-5000]. ATP used in the assay was purchased from Sigma (St. Louis, Mo.) and a 200 mM stock was prepared with low salt buffer (150 mM NaCl, 25 mM Tris, pH 7.5, 60 mM MgCl2). The γ-phosphate ATP sepharose was synthesized as previously described and stored in low salt buffer [Haystead et al. (1993). Gamma-phosphate-linked ATP-sepharose for the affinity purification of protein kinases. Rapid purification to homogeneity of skeletal muscle mitogen-activated protein kinase kinase. European journal of biochemistry/FEBS 214, 459-467]. FuGENE 6 transfection reagent (Roche, Mannheim, Germany) was used for transfection of GFP-Hsp70i into HEK 293T cells, following the manufacturer protocol. The transfection ensued for 48 hours, upon which time the cells were harvested and lysed in cell lysis buffer (150 mM NaCl, 50 mM Tris, pH 7.5, 1% Triton X-100, 1 mM EDTA, 1 mM DTT, and 1 tablet Complete Mini protease inhibitor (Roche)). Cell lysates were stored at −80° C. until further use. Upon binding the resin lysates were washed 3× with high stringency wash buffer (1 M NaCl, 25 mM Tris, pH 7.5, 60 mM MgCl2, 1 mM DTT) and 3× with low stringency wash buffer (150 mM NaCl, 25 mM Tris, pH 7.5, 60 mM MgCl2, 1 mM DTT). Next the lysates were transferred to 0.2 μm PVDF filter 96-well plate (Corning, Corning, N.Y.) sitting on top of a black flat-bottomed 96-well catch plate (Corning). […]
# (§2) HS-72 specifically targets Hsp70i over other members of the Hsp70 superfamily. […] To more thoroughly determine the specificity of HS-72 for Hsp70i, the HEK 293T eluates were also analyzed for other Hsp70 family members Hsc70, Grp78, and Grp75, as well as Hsp90 by Western blot. […] The linker on the resin was cleaved using sodium dithionite and the samples were subjected to SDS-PAGE and analyzed by Western blot, silver stain, and mass spectrometry. […]
# [3] = target: T1, Hsp70i, Hsc70, Grp78, Grp75, Hsp90 (Homo sapiens, UniProt P0DMV8); assay: as above; type: binding; details: few non-specific eluted proteins
# T1 construct: endogenous in cells; host or cells: HEK 293T
# Protocol: as §1, §2
# [4] = target: T2, Hsp70i C306D mutant (Homo sapiens, UniProt P0DMV8, C306D); assay: Thermofluor assay, Hsp70i C306D mutant; type: binding; details: ±ATP
# T2 construct: His tag (cleaved yes); made in house
# Protocol: Protein Purification: Plasmids were provided for human HSPA1A, HSPA8, and HSPA1A C306D. Plasmids were transformed in Rosetta competent cells and single colonies were picked from streaked LB/ampicillin/chloramphenicol plates. Cultures were grown at 37° C. for 4-6 hours, were cooled to 15° C. and expression was induced overnight with 200 uM isopropyl 1-thio-β-D-galactopyranoside. Cells were pelleted and resuspended in Ni-lysis buffer (50 mM Na2HPO4, 300 mM NaCl, 10 mM Imidazole, 0.05% Tween-20) supplemented with Complete Mini protease inhibitor tablets (Roche, Mannheim, Germany) and […], and then sonicated. The cells were again pelleted and the supernatant was incubated with complete His-Tag purification resin (Roche, Mannheim, Germany) for 5 hours at 4° C. The resin was washed with Ni-wash buffer (50 mM Na2HPO4, 300 mM NaCl, 20 mM Imidazole, 0.05% Tween-20) and eluted with Ni-elution buffer (50 mM Na2HPO4, 300 mM NaCl, 250 mM Imidazole, 0.05% Tween-20). […]
# Thermofluor Assay: SYPRO orange (Molecular Probes, Eugene, Oreg.) was diluted 1:1000 in 25 mM HEPES, 5 mM MgCl2, 10 mM KCl (pH 7.5) and purified Hsp70i, Hsc70, Hsp70i C306, or Hsp90, was then added to a final dilution of 0.04 mg/ml. […] A melt curve protocol (25° C. to 90° C., increasing 0.5° C. and a plate reading every 30 seconds) was run on a CFX384 Touch™ Real-Time PCR Detection System (BioRad). […]
# T2 sequence (P0DMV8 whole entry C306D): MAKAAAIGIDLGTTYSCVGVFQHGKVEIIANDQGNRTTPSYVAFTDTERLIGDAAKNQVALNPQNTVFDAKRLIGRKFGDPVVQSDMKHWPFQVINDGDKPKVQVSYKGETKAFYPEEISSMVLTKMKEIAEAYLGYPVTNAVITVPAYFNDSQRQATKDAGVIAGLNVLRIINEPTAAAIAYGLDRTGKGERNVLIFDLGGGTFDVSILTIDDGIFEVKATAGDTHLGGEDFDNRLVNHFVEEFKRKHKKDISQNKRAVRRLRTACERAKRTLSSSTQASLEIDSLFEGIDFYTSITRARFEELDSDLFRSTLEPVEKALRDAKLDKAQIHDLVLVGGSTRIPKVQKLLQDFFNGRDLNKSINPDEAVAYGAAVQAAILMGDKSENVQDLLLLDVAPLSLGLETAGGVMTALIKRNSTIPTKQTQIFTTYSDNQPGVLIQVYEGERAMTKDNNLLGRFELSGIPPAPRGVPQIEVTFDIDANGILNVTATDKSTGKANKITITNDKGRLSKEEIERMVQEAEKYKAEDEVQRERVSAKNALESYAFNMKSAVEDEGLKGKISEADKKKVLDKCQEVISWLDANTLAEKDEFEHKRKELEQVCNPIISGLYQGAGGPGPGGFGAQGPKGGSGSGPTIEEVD
# T1 sequence (P0DMV8 2-641): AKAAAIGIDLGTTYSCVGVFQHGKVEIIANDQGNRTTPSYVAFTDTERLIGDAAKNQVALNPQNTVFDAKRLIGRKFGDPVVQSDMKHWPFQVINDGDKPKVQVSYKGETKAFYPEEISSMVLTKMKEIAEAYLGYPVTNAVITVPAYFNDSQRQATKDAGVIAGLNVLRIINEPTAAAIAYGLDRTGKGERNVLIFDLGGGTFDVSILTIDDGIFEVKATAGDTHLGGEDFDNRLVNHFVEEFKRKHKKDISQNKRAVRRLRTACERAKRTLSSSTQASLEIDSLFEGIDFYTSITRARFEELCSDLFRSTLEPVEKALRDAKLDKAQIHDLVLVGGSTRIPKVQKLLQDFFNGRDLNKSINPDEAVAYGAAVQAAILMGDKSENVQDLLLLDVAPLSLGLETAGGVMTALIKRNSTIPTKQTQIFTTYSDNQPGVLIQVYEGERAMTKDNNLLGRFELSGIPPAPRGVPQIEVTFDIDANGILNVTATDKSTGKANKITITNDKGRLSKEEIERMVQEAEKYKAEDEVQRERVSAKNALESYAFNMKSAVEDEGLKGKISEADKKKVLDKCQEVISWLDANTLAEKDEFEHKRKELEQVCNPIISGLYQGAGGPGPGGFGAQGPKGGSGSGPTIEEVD
smiles,measurement,setting,value
"CCCn1c(NC(=O)[C@H]2CCCN(c3cnccn3)C2)nc2ccccc21 [HS-72, (S)—N-(1-propyl-1H-benzo[d]imidazol-2-yl)-1-(pyrazin-2-yl)piperidine-3-carboxamide]",increase of median survival vs. no treatment,[1]; I.P. 20 mpk BiW,6 days
same,tumor volume vs. no treatment,"[1]; I.P. 20 mpk BiW, 20 mg/kg",significant reduction
same,tumor volume vs. no treatment,"[1]; I.P. 20 mpk BiW, listed as HS72, 20 mg/kg",significant decrease
same,increase of median survival vs. no treatment,[1]; I.P. 20 mpk qd,13 days
same,Hsp70 family members and Hsp90 eluted from the ATP resin,[2],only inducible Hsp70 was eluted
same,elution of Hsp70 from ATP resin,[3],elutes Hsp70
same,effect on Tm of the Hsp70i C306D mutant,[4],does not change
